In US7511062B2, “Substituted 2-quinolyl-oxazoles useful as PDE4 inhibitors” (Schering Corporation, priority 2004, dated 2009) one finds IC50 data, which are given here for nine compounds.

The experiment addresses Human PDE4 Enzyme. As to the kind of experiment: PDE4 screening assay ([3H]cAMP SPA). In kind it is biochemical. The following applies: human neutrophil PDE4, [3H]cAMP SPA. The method, then: The neutrophils were isolated from human blood using a standard procedure, then homogenized with a glass-glass homogenizer in a buffer containing 20 mM Tris/HCl (pH 8.0), protease inhibitor cocktail tablet (Cat. No. 1836145/Boehringer Mannheim), 2 mM EDTA, 1% Triton X-100 and 0.5% deoxycholate. After stirring for 2 h at 4° C., the samples were centrifuged at 100,000 g for 1 h. The supernatants were collected, filtered and applied to Mono Q column chromatography. The fractions containing the activity of hydrolyzing cAMP were determined and pooled as the enzymatic source of the PDE4 screening assay.
2. PDE4 Assay and Compound Screening
The PDE4 assays were performed using Phosphodiesterase [^3H]cAMP SPA enzyme assay kits and its procedures (Cat. No. TRKQ 7090, Amersham). The assay procedures are described briefly as follows. The diluted PDE4 enzyme, 10× assay buffer and water were mixed at a ratio of 1:1:6 (10 μl/10 μl/60 μl). 80 μl aliquots of this mixture were added into the test wells of a 96-well Microlite plate (Cat. No. 7416, ThermoLabsystems). Enzyme dilution buffer, instead of the diluted enzyme, and water were added into the wells of negative control (background). 10 μl test compounds in 10% DMSO, standard inhibitor in 10% DMSO or 10% DMSO (for positive and negative controls) were added into the corresponding wells, respectively. After a 10 min incubation at RT, the reactions were initiated by addition of 10 μl pre-diluted [^3H]cAMP into each well, then incubated at 30° C. for 30 min. The reactions were stopped by addition of 50 μl SPA beads into the test wells, then counted in a β-counter over 30 min ˜24 hr.
10× Assay Buffer: 500 mM Tris/HCl pH 7.5, 83 mM MgCl2, 17 mM EGTA
[^3H]cAMP: [3H] cAMP (40-60 Ci/mmol) is diluted at a 1:200 ratio with water. The final concentration is 0.005 μCi/μl
Yttrium SPA Beads: 500 mg of beads was reconstituted with 28 ml of water, stored at 4° C.
The compound `COc1ccc(-c2nc(C(=O)NCc3coc4ccccc34)c([C@H](C)N)o2)c2ccc(C(F)(F)F)nc12` [26-92] registered a half-inhibitory concentration (IC50) of 0.01 nM. With `COc1ccc(-c2nc(C(=O)NCc3ccc(F)cc3F)c([C@@H](N)CO)o2)c2ccc(C(F)(F)F)nc12` [38-3] the figure was 1.8 nM; with `COc1ccc(-c2nc(C(=O)NC3CCCc4nccnc43)c([C@H](C)N)o2)c2ccc(C(F)(F)F)nc12` (mixture of isomers) [26-42], 0.07 nM. For the compound `COc1ccc(-c2nc(C(=O)NCc3csc4ccccc34)c(CN)o2)c2ccc(C(F)(F)F)nc12` [13-106], the IC50 came to 0.14 nM. For the compound `COc1ccc(-c2nc(C(=O)N[C@H]3CCC[C@@H]3O)c([C@H](C)N)o2)c2ccc(C(F)(F)F)nc12` [26-417], the IC50 is 1.4 nM. Take `COc1ccc(-c2nc(C(=O)N3CCC(Nc4ncccn4)CC3)c([C@H](C)N)o2)c2ccc(C(F)(F)F)nc12` [26-177]: the IC50 came out at 3 nM.

As for `COc1ccc(-c2nc(C(=O)N3C[C@](O)(c4ncccn4)C[C@H]3C(=O)OC(C)C)c([C@H](C)N)o2)c2ccc(C(F)(F)F)nc12` [26-241], the IC50 came to 0.2 nM. Compound `COc1ccc(-c2nc(C(=O)N3CCN(C(=O)C4CC4)CC3)c([C@H](C)N)o2)c2ccc(C(F)(F)F)nc12` [26-293] gave an IC50 of 0.5 nM. Take `COc1ccc(-c2nc(C(=O)NC[C@@H](C)NC(=O)C3CC3)c([C@H](C)N)o2)c2ccc(C(F)(F)F)nc12` [26-444]: the midpoint of inhibition, the IC50, lay at 0.03 nM. Compared with the last compound, the IC50 is about 17-fold lower.
